Legend:
Format in all cases: in vivo
Anthonomus grandis [1] = experiment: Spray test on young cotton plants, action against Anthonomus grandis adults; details: spray 100, 50, 10, 5, 1 ppm, evaluation 3 to 10 days
From the text: (§1) Young transgenic cotton plants which express the δ-endotoxin CryIIIA are sprayed with an aqueous emulsion spray mixture comprising 100, 50, 10, 5, 1 ppm of imidacloprid respectively. After the spray coating has dried on, the cotton plants are populated with 10 adult Anthonomus grandis, 10 Spodoptera littoralis larvae or 10 Heliothis virescens larvae respectively and introduced into a plastic container. Evaluation takes place 3 to 10 days later.
(§2) Young transgenic cotton plants which express the δ-endotoxin CryIIIA are sprayed with an aqueous emulsion spray mixture comprising 100, 50, 10, 5, 1 ppm of thiamethoxam respectively. After the spray coating has dried on, the cotton plants are populated with 10 adult Anthonomus grandis, 10 Spodoptera littoralis larvae or 10 Heliothis virescens larvae respectively and introduced into a plastic container. Evaluation takes place 3 to 10 days later.
(§3) Young transgenic cotton plants which express the δ-endotoxin CryIIIA are sprayed with an aqueous emulsion spray mixture comprising 100, 50, 10, 5, 1 ppm of Ti-435 respectively. After the spray coating has dried on, the cotton plants are populated with 10 adult Anthonomus grandis, 10 Spodoptera littoralis larvae or 10 Heliothis virescens larvae respectively and introduced into a plastic container. Evaluation takes place 3 to 10 days later.
(§4) Young transgenic cotton plants which express the δ-endotoxin CryIa(c) are sprayed with an aqueous emulsion spray mixture comprising 100, 50, 10, 5, 1 ppm of Ti-435 respectively. After the spray coating has dried on, the cotton plants are populated with 10 adult Anthonomus grandis, 10 Spodoptera littoralis larvae or 10 Heliothis virescens larvae respectively and introduced into a plastic container. Evaluation takes place 3 to 10 days later.
(§5) Young transgenic cotton plants which express the δ-endotoxin CryIa(c) are sprayed with an aqueous emulsion spray mixture comprising 100, 50, 10, 5, 1 ppm of thiamethoxam respectively. After the spray coating has dried on, the cotton plants are populated with 10 adult Anthonomus grandis, 10 Spodoptera littoralis larvae or 10 Heliothis virescens larvae respectively and introduced into a plastic container. Evaluation takes place 3 to 10 days later.
(§6) Young transgenic cotton plants which express the δ-endotoxin CryIa(c) are sprayed with an aqueous emulsion spray mixture comprising 100, 50, 10, 5, 1 ppm of imidacloprid respectively. After the spray coating has dried on, the cotton plants are populated with 10 adult Anthonomus grandis, 10 Spodoptera littoralis larvae or 10 Heliothis virescens larvae respectively and introduced into a plastic container. Evaluation takes place 3 to 10 days later.

Ostrinia nubilalis = experiment: Maize plot spray test (KnockOut vs conventional maize), action against Ostrinia nubilalis; details: 6 days; for control (percentage reduction in population, % action): plot (a) maize cv. KnockOut, spray 200, 100, 50, 10, 5, 1 ppm, natural infestation; for control level: plot (b) conventional maize, compound 200, 100, 50, 10, 5, 1 ppm, then same ppm of the endotoxin expressed by KnockOut
Protocol: (§7) A plot (a) planted with maize cv. KnockOut® and an adjacent plot (b) of the same size which is planted with conventional maize, both showing natural infestation with Ostrinia nubilalis, Spodoptera spp. or Heliothis, are sprayed with an aqueous emulsion spray mixture comprising 200, 100, 50, 10, 5, 1 ppm of Ti-435. Immediately afterwards, plot (b) is treated with an emulsion spray mixture comprising 200, 100, 50, 10, 5, 1 ppm of the endotoxin expressed by KnockOut®. Evaluation takes place 6 days later. The percentage reduction in population (% action) is determined by comparing the number of dead pests on the plants of plot (a) with that on the plants of plot (b).
as §7, with “thiamethoxam.” for “Ti-435.”
as §7, with “imidacloprid.” for “Ti-435.”

Anthonomus grandis [2] = experiment: Spray test on young cotton plants, action against Anthonomus grandis adults; details: non-transgenic cotton treated with compound and conventional CryIIIA-toxin, each 100, 50, 10, 5, 1 ppm
Spodoptera littoralis [3] = experiment: Spray test on young cotton plants, action against Spodoptera littoralis larvae
Spodoptera littoralis [4] = experiment: as above; remark: listed apart in the source
From the text: as §1, §2, §3, §4, §5, §6

Heliothis spp. = experiment: Maize plot spray test (KnockOut vs conventional maize), action against Heliothis spp.; details: 6 days; for control (percentage reduction in population, % action): plot (a) maize cv. KnockOut, spray 200, 100, 50, 10, 5, 1 ppm, natural infestation; for control level: plot (b) conventional maize, compound 200, 100, 50, 10, 5, 1 ppm, then same ppm of the endotoxin expressed by KnockOut
Protocol: as §7
as §7, with “thiamethoxam.” for “Ti-435.”
as §7, with “imidacloprid.” for “Ti-435.”

Heliothis virescens [5] = experiment: Spray test on young cotton plants, action against Heliothis virescens larvae; details: spray 100, 50, 10, 5, 1 ppm, evaluation 3 to 10 days
From the text: as §1, §2
Young transgenic cotton plants which express the δ-endotoxin CryIIIA are sprayed with an aqueous emulsion spray mixture comprising 100, 50, 10, 5, 1 ppm of Ti-435 respectively. After the spray coating has dried on, the cotton plants are populated with 10 adult Anthonomus grandis, 10 Spodoptera littoralis larvae or 10 Heliothis virescens larvae respectively and introduced into a plastic container. Evaluation takes place 3 to 10 days later. […]

Heliothis virescens [6] = experiment: as above; details: non-transgenic cotton treated with compound and conventional CryIIIA-toxin, each 100, 50, 10, 5, 1 ppm
Spodoptera spp. = experiment: Maize plot spray test (KnockOut vs conventional maize), action against Spodoptera spp.; details: 6 days; for control (percentage reduction in population, % action): plot (a) maize cv. KnockOut, spray 200, 100, 50, 10, 5, 1 ppm, natural infestation; for control level: plot (b) conventional maize, compound 200, 100, 50, 10, 5, 1 ppm, then same ppm of the endotoxin expressed by KnockOut
Protocol: as §7
as §7, with “thiamethoxam.” for “Ti-435.”
as §7, with “imidacloprid.” for “Ti-435.”

[7] = transgenic cotton expressing δ-endotoxin CryIIIA, compared with non-transgenic plant
[8] = transgenic cotton expressing δ-endotoxin CryIa(c)
[9] = comparison arm for CryIIIA cotton
[10] = comparison arm for CryIa(c) cotton
[11] = transgenic cotton expressing δ-endotoxin CryIIIA, spray 100, 50, 10, 5, 1 ppm, evaluation 3 to 10 days, compared with non-transgenic plant
[12] = non-transgenic cotton treated with compound and conventional CryIIIA-toxin, each 100, 50, 10, 5, 1 ppm, comparison arm for CryIa(c) cotton
[13] = transgenic cotton expressing δ-endotoxin CryIa(c), spray 100, 50, 10, 5, 1 ppm, evaluation 3 to 10 days

Row | SMILES | control of the tested insects (percentage reduction in population or feeding damage, % action) (Anthonomus grandis [1]; [7]) | control of the tested insects (percentage reduction in population or feeding damage, % action) (Anthonomus grandis [1]; [8]) | control (percentage reduction in population, % action) (Ostrinia nubilalis) | control level (Ostrinia nubilalis) [%] | control of the tested insects (percentage reduction in population or feeding damage, % action) (Anthonomus grandis [2]; [9]) | control of the tested insects (percentage reduction in population or feeding damage, % action) (Anthonomus grandis [2]; [10]) | control of the tested insects (percentage reduction in population or feeding damage, % action) (Spodoptera littoralis [3]; non-transgenic cotton treated with compound and conventional CryIIIA-toxin, each 100, 50, 10, 5, 1 ppm, comparison arm for CryIIIA cotton) | control of the tested insects (percentage reduction in population or feeding damage, % action) (Spodoptera littoralis [3]; [11]) | control of the tested insects (percentage reduction in population or feeding damage, % action) (Spodoptera littoralis [4]; [12]) | control of the tested insects (percentage reduction in population or feeding damage, % action) (Spodoptera littoralis [4]; [13]) | control (percentage reduction in population, % action) (Heliothis spp.) | control level (Heliothis spp.) [%] | control of the tested insects (percentage reduction in population or feeding damage, % action) (Heliothis virescens [5]; [7]) | control of the tested insects (percentage reduction in population or feeding damage, % action) (Heliothis virescens [5]; [8]) | control of the tested insects (percentage reduction in population or feeding damage, % action) (Heliothis virescens [6]; [9]) | control of the tested insects (percentage reduction in population or feeding damage, % action) (Heliothis virescens [6]; [10]) | control (percentage reduction in population, % action) (Spodoptera spp.) | control level (Spodoptera spp.) [%]
1 | CN/C(=N\[N+](=O)[O-])NCc1cnc(Cl)s1 [Ti-435] | superior | superior | Improved control | ≤ 60 | insufficient | insufficient | insufficient | superior | insufficient | superior | Improved control | ≤ 60 | superior | superior | insufficient | insufficient | Improved control | ≤ 60
2 | O=[N+]([O-])/N=C1\NCCN1Cc1ccc(Cl)nc1 [imidacloprid] | superior | superior | Improved control | ≤ 60 | – | insufficient | – | superior | insufficient | superior | Improved control | ≤ 60 | superior | superior | – | insufficient | Improved control | ≤ 60
